Where two headings read alike, the source gives them in different places.
Experiments:
[1] = tested on: MDA-MB-231, HeLa, A549 and HT-29 cancer cell lines; assay: Antiproliferative activity stated across the panel of cancer cell lines; assay type: cell-based, human; settings: for IC50: Homo sapiens, read-out: IC50
Procedure: (§1) All the cell lines used in this paper were of human origin and purchased from the American Type Culture Collection (ATCC, Manassas, VA, USA). Colon adenocarcinoma (HT-29), non-small cell lung carcinoma (A549), cervix carcinoma (HeLa) and breast adenocarcinoma (MDA-MB-231) cells were grown in RPMI (HT29) or DMEM (A549, HeLa, MDA-MB-231) medium (Gibco, Milano, Italy). Both media were supplemented with 115 units/mL of penicillin G (Gibco, Milano, Italy), 115 μg/mL of streptomycin (Invitrogen, Milano, Italy) and 10% fetal bovine serum (Invitrogen, Milano, Italy). All cell lines were grown at 37 °C in a humidified 5% CO2 atmosphere. The cells were grown in 2 mL of complete medium.
(§2) Stock solutions were prepared for each compound by dissolving in DMSO at the final concentration of 10 mM.
(§3) The cells were seeded in 96-well plates at the appropriate density for each cell line. The respective cell line densities used for the antiproliferative assay were HeLa and HT29 5000 cells/well, A549 4000 cells/well and MDA-MB-231 7000 cells/well. The total volume of medium was 100 µL. After 24 h, the cells were treated by performing serial 5-fold dilutions of the tested compounds starting from a concentration of 10 μM. All experimental conditions were tested in triplicate for statistical analysis. After 72 h of incubation, 10 μL of 100 μg/mL resazurin solution was added to each well and the plate was re-incubated for 3–4 h. The fluorescence of the wells in each plate was monitored using a Spark 10M spectrophotometer (Tecan Group Ltd., Mannedorf, Switzerland) with a 535 nm excitation wavelength and a 600 nm emission wavelength.

MDA-MB-231 = assay: In vitro cell growth inhibition, resazurin viability assay; assay type: cell-based, human; settings: Homo sapiens, MDA-MB-231; 72 h, resazurin; mean ± SE
Procedure: as §1, §2, §3

A549 = assay: as above; assay type: cell-based, human; settings: Homo sapiens, A549; 72 h, resazurin; mean ± SE
Procedure: as §1, §2, §3

HeLa = assay: as above; assay type: cell-based, human; settings: for IC50: Homo sapiens, 72 h, resazurin, mean ± SE
Procedure: as §1, §2, §3

HT29 = assay: as above; assay type: cell-based, human; settings: for IC50: Homo sapiens, HT-29, 72 h, resazurin, mean ± SE
Procedure: as §1, §2, §3

Bovine brain tubulin [2] = assay: Inhibition of [3H]colchicine binding to tubulin; settings: tubulin 0.5 µM, [3H]colchicine 5 µM, tested compound 5 µM
Procedure: (§4) Bovine brain tubulin was purified as described previously. To evaluate the effects of the compounds on tubulin assembly in vitro [80], varying concentrations were preincubated with 10 μM tubulin in 0.8 M monosodium glutamate (pH 6.6) at 30 °C and the reaction mixtures then cooled to 0 °C. After addition of GTP, the mixtures were transferred to 0 °C cuvettes in Beckman Coulter (Brea, CA, USA) DU-7400/DU-7500 recording spectrophotometers equipped with electronic temperature controllers and warmed to 30 °C, and the assembly of tubulin was observed turbidimetrically. […] Inhibition of colchicine binding to tubulin was measured as described before, except that the reaction mixtures contained 0.5 μM tubulin and 5 μM each of [^3H]colchicine and test compound. Only one DEAE-cellulose filter was used per sample, and filtration was by gravity.
(§5) Bovine brain tubulin (see ref. [79] for details of purification) was used to examine effects on tubulin polymerization and colchicine binding. Briefly, in the polymerization experiments, different compound concentrations were preincubated with 10 µM tubulin for 15 min at 30 °C and cooled on ice. After GTP was added to each reaction mixture, the samples were transferred to 0 °C cuvettes in recording spectrophotometers with electronic temperature controllers. The temperature was raised to 30 °C over about 30 s, and turbidity development was followed for 20 min at 350 nm. […] In the current studies, [^3H]colchicine (from American Radiolabeled Corp., St. Louis, MO) binding was measured after 10 min at 37 °C. Reaction mixtures contained 0.5 µM tubulin and 5.0 µM each of the [^3H]colchicine and the potential inhibitor, and a single DEAE-cellulose filter was used for each sample, with gravity filtration.

Bovine brain tubulin [3] = assay: Inhibition of tubulin polymerization (turbidimetric assembly assay); assay type: biochemical; settings: tubulin at 10 μM, 20 min incubation; read-out: Tubulin Assembly IC50 ± SD
Procedure: as §4, §5

[4] = stated for the panel of cancer cell lines as a whole

IC50 [1, 4] [µM] | melting point [°C] | IC50 (MDA-MB-231) [µM] | IC50 (A549) [µM] | IC50 (HeLa) [µM] | IC50 (HT29) [µM] | IC50 ([1]; against three of the four cancer cell lines (not HT-29)) [µM] | Colchicine Binding % Inhibition ± SD (Bovine brain tubulin [2]) [%] | IC50 (Bovine brain tubulin [3]) [µM] | Structure (SMILES) | fold reduction in antiproliferative activity relative to 3d ([1]; range over cell lines) | fold reduction in potency relative to 3a (HT29; HT-29 cells) [fold] | fold more active than 3n (HeLa; HeLa cells) [fold] | fold more active than 3n (HT29; HT-29 cells) [fold] | fold increase in antiproliferative activity relative to 3k ([1]; three of the four cancer cell lines)
– | 172 to 174 | > 10 | > 10 | > 10 | 3.42 ± 0.41 | > 10 | – | – | COc1cc(-c2ccnc3nc(Nc4cccnc4)nn23)cc(OC)c1OC [Compound 3b, N-(Pyridin-3-yl)-7-(3,4,5-trimethoxyphenyl)-[1,2,4]triazolo[1,5-a]pyrimidin-2-amine] | – | 3 | – | – | –
– | 212 to 214 | > 10 | > 10 | 4.7 ± 0.59 | > 10 | – | – | – | COc1cc(-c2ccnc3nc(Nc4ccc(C(C)C)cc4)nn23)cc(OC)c1OC [Compound 3j, N-(4-Isopropylphenyl)-7-(3,4,5-trimethoxyphenyl)-[1,2,4]triazolo[1,5-a]pyrimidin-2-amine] | – | – | – | – | –
– | 212 to 214 | > 10 | 2.42 ± 0.12 | 0.29 ± 0.031 | 0.67 ± 0.12 | – | – | – | COc1cc(-c2ccnc3nc(Nc4ccc5c(c4)OCCO5)nn23)cc(OC)c1OC [Compound 3o, N-(2,3-Dihydrobenzo[b][1,4]dioxin-6-yl)-7-(3,4,5-trimethoxyphenyl)-[1,2,4]triazolo[1,5-a]pyrimidin-2-amine] | – | – | 3 | 2 | –
> 10 | 233 to 235 | > 10 | > 10 | > 10 | > 10 | – | – | – | COc1cc(-c2ccnc3nc(NCc4ccc5c(c4)OCO5)nn23)cc(OC)c1OC [Compound 3t, N-(Benzo[d][1,3]dioxol-5-ylmethyl)-7-(3,4,5-trimethoxyphenyl)-[1,2,4]triazolo[1,5-a]pyrimidin-2-amine] | – | – | – | – | –
> 10 | 98 to 100 | > 10 | > 10 | > 10 | > 10 | – | – | – | COc1cc(-c2ccnc3nc(NCCCc4ccccc4)nn23)cc(OC)c1OC [Compound 3v, N-(3-Phenylpropyl)-7-(3,4,5-trimethoxyphenyl)-[1,2,4]triazolo[1,5-a]pyrimidin-2-amine] | – | – | – | – | –
– | 213 to 215 | – | – | – | – | – | – | – | COc1ccc(Nc2nc3nccc(-c4cc(OC)c(OC)c(OC)c4)n3n2)cc1 [Compound 3k, N-(4-Methoxyphenyl)-7-(3,4,5-trimethoxyphenyl)-[1,2,4]triazolo[1,5-a]pyrimidin-2-amine] | – | – | – | – | –
> 10 | 138 to 139 | 8.7 ± 1.1 | > 10 | > 10 | 6.74 ± 0.5 | – | – | – | COc1cc(-c2ccnc3nc(NCCc4ccccc4)nn23)cc(OC)c1OC [Compound 3u, N-Phenethyl-7-(3,4,5-trimethoxyphenyl)-[1,2,4]triazolo[1,5-a]pyrimidin-2-amine] | – | – | – | – | –

More lines, now with the values behind:

Structure (SMILES) | IC50 [1, 4] [µM] | melting point [°C] | IC50 (MDA-MB-231) [µM] | IC50 (A549) [µM] | IC50 (HeLa) [µM] | IC50 (HT29) [µM] | IC50 ([1]; against three of the four cancer cell lines (not HT-29)) [µM] | Colchicine Binding % Inhibition ± SD (Bovine brain tubulin [2]) [%] | IC50 (Bovine brain tubulin [3]) [µM] | fold reduction in antiproliferative activity relative to 3d ([1]; range over cell lines) | fold reduction in potency relative to 3a (HT29; HT-29 cells) [fold] | fold more active than 3n (HeLa; HeLa cells) [fold] | fold more active than 3n (HT29; HT-29 cells) [fold] | fold increase in antiproliferative activity relative to 3k ([1]; three of the four cancer cell lines)
COc1ccc(CNc2nc3nccc(-c4cc(OC)c(OC)c(OC)c4)n3n2)cc1 [Compound 3s, N-(4-Methoxybenzyl)-7-(3,4,5-trimethoxyphenyl)-[1,2,4]triazolo[1,5-a]pyrimidin-2-amine] | > 10 | 190 to 192 | > 10 | > 10 | > 10 | > 10 | – | – | – | – | – | – | – | –
COc1cc(-c2ccnc3nc(Nc4cccc(C)c4)nn23)cc(OC)c1OC [Compound 3e, N-(m-Tolyl)-7-(3,4,5-trimethoxyphenyl)-[1,2,4]triazolo[1,5-a]pyrimidin-2-amine] | – | 229 to 230 | > 10 | 1.87 ± 0.17 | 0.39 ± 0.02 | 1.38 ± 0.09 | – | – | – | 10–46 fold | – | – | – | –
COc1cc(-c2ccnc3nc(NCc4ccccc4)nn23)cc(OC)c1OC [Compound 3p, N-Benzyl-7-(3,4,5-trimethoxyphenyl)-[1,2,4]triazolo[1,5-a]pyrimidin-2-amine] | > 10 | 144 to 146 | 9.3 ± 0.22 | > 10 | > 10 | > 10 | – | – | – | – | – | – | – | –
CCOc1ccc(Nc2nc3nccc(-c4cc(OC)c(OC)c(OC)c4)n3n2)cc1 [Compound 3m, N-(4-Ethoxyphenyl)-7-(3,4,5-trimethoxyphenyl)-[1,2,4]triazolo[1,5-a]pyrimidin-2-amine] | > 10 | 205 to 207 | > 10 | > 10 | > 10 | 6.16 ± 0.97 | – | – | – | – | – | – | – | –
COc1cc(-c2ccnc3nc(Nc4ccccc4)nn23)cc(OC)c1OC [Compound 3a, N-Phenyl-7-(3,4,5-trimethoxyphenyl)-[1,2,4]triazolo[1,5-a]pyrimidin-2-amine] | – | 235 to 236 | – | – | – | – | – | – | – | – | – | – | – | –
COc1cc(-c2ccnc3nc(Nc4ccc(F)cc4)nn23)cc(OC)c1OC [Compound 3c, N-(4-Fluorophenyl)-7-(3,4,5-trimethoxyphenyl)-[1,2,4]triazolo[1,5-a]pyrimidin-2-amine] | – | 234 to 235 | > 10 | > 10 | 5.44 ± 1.05 | > 10 | – | – | – | – | – | – | – | –
COc1cccc(Nc2nc3nccc(-c4cc(OC)c(OC)c(OC)c4)n3n2)c1 [Compound 3l, N-(3-Methoxyphenyl)-7-(3,4,5-trimethoxyphenyl)-[1,2,4]triazolo[1,5-a]pyrimidin-2-amine] | – | 165 to 166 | 1.76 ± 0.9 | 0.76 ± 0.18 | 0.44 ± 0.08 | 0.76 ± 0.18 | – | 39 ± 5 | 2.2 ± 0.2 | – | – | – | – | –
COc1cc(-c2ccnc3nc(Nc4cc(C)cc(C)c4)nn23)cc(OC)c1OC [Compound 3g, N-(3,5-Dimethylphenyl)-7-(3,4,5-trimethoxyphenyl)-[1,2,4]triazolo[1,5-a]pyrimidin-2-amine] | > 10 | 228 to 230 | > 10 | > 10 | > 10 | > 10 | – | – | – | – | – | – | – | –
CCCc1ccc(Nc2nc3nccc(-c4cc(OC)c(OC)c(OC)c4)n3n2)cc1 [Compound 3i, N-(4-Propylphenyl)-7-(3,4,5-trimethoxyphenyl)-[1,2,4]triazolo[1,5-a]pyrimidin-2-amine] | – | 185 to 187 | > 10 | > 10 | > 10 | > 10 | – | – | – | – | – | – | – | –
COc1cc(-c2ccnc3nc(NCc4ccc(Cl)cc4)nn23)cc(OC)c1OC [Compound 3q, N-(4-Chlorobenzyl)-7-(3,4,5-trimethoxyphenyl)-[1,2,4]triazolo[1,5-a]pyrimidin-2-amine] | – | 171 to 173 | > 10 | > 10 | > 10 | > 10 | – | – | – | – | – | – | – | –
COc1cc(-c2ccnc3nc(NCc4ccc(C)cc4)nn23)cc(OC)c1OC [Compound 3r, N-(4-Methylbenzyl)-7-(3,4,5-trimethoxyphenyl)-[1,2,4]triazolo[1,5-a]pyrimidin-2-amine] | > 10 | 156 to 158 | > 10 | > 10 | > 10 | > 10 | – | – | – | – | – | – | – | –
COc1cc(-c2ccnc3nc(Nc4ccc5c(c4)OCO5)nn23)cc(OC)c1OC [Compound 3n, N-(Benzo[d][1,3]dioxol-5-yl)-7-(3,4,5-trimethoxyphenyl)-[1,2,4]triazolo[1,5-a]pyrimidin-2-amine] | – | 234 to 236 | 6.1 ± 1.72 | 1.44 ± 0.26 | – | 1.39 ± 0.06 | – | – | – | – | – | – | – | 1.5- to 4 fold

— article PMC9415608, “Design, Synthesis and Biological Investigation of 2-Anilino Triazolopyrimidines as Tubulin Polymerization Inhibitors with Anticancer Activities” (Pharmaceuticals, 2022)
